Data: patent US6197774A, “Pyrimidine derivative” (Otsuka Pharmaceutical Co., Ltd., priority 1997, dated 2001)

Test: MTT assay, index of toxicity for A 549 cells
Format: cell-based
Conditions: human, a549 cells, control 100.0, read-out: Ratio of optical absorbance
Procedure: Test was conducted in accordance with the method as described in J. Immunol. Methods, Vol. 94, pp. 57-68, (1986). Cell strain RAW 264.7 derived from the macrophage of mouse was incubated similarly as in the method of Test Example 1(1). After that, MTT reagent (5 mg/ml) in 1/10 amount of the culture medium was added to the cells, and incubated for 4 hours. The supernatant of culture medium was taken off, then the cells were collected by using 1% SDS solution and the optical absorbance at 570-630 nm of the SDS solution was measured.
Cell strain A 549 (ATCC) derived from human alveolar epithelium cells was placed on each one of the wells on a microplate having 24-wells so as to put the cells in an amount of 3×10^5 cells/U (well). The cells were incubated for 24 hours in F-12 Nutrient Mixture culture medium (mfd. by GIBCO) to which 10% of equine serum, 100 U/ml of penicillin (mfd. by Dainippon Pharmaceutical Co., Ltd.) and 100 μg/ml of streptomycin (mfd. by Dainippon Pharmaceutical Co., Ltd.) were added.
On the other hand, the test culture medium, containing the test compound of Example 1 was prepared similarly as in the reference culture medium, except adding the test compound (1×10^-5, 1×10^-6 and 1×10^-7 M) dissolved in dimethyl sulfoxide (DMSO) at the same time of inducers-addition.
The concentration of IL-8 formed in the supernatant of each one of the culture media after 24-hour incubation was measured by IL-8 ELISA Kit Human (mfd. by genzyme). Further, MTT assay was conducted by the similar method as described in Text Example 2 to determine the index of toxicity for cells.

Question: What does the source list for `COCc1cc(=O)n2ncc(-c3ccc(Sc4ccccc4)cc3)c2[nH]1` [Example 1, 4,7-dihydro-5-methoxymethyl-7-oxo-3-(4-phenylthiophenyl)pyrazolo[1,5-a]pyrimidine]?
Answer: viability at 24 h, 10 µM (1 × 10^-5 M): 126%; viability at 24 h, 1 µM (1 × 10^-6 M): 98.1%; viability at 24 h, 0.1 µM (1 × 10^-7 M): 108%
